Test results published in patent US20260219194A1, “BIOSENSOR FOR WATER ANALYSIS” (BIOCELL ANALYTICA UPPSALA AB, priority 2023, published 2026).

Tested on: estrogen responsive promoter (four repeats of estrogen response element, ERE) in MCF-7/S0.5 reporter cells
Assay: Estrogen-responsive NanoLuc luciferase reporter assay in transfected MCF-7/S0.5 cells, luminescence in culture medium without cell lysis
Format: cell-based, human
Conditions: MCF-7/S0.5 reporter cells exposed for 24 h to 0.03 to 109 ng/L
Description: MCF-7/S0.5 human breast cancer cells (Sigma-Aldrich, catalogue no. SCC100) were cultured in medium supplemented with 1% charcoal-stripped fetal bovine serum (FBS) for 48 hours prior to seeding. The cells were then seeded in medium supplemented with 1% FBS and incubated for 48 hours. […]
The luminescence was measured in the cell culture medium by a Spark® Multimode Microplate Reader (Tecan) from three experimental groups: a) negative control with only cell culture medium but no cells, b) cell culture medium and non-transfected cells, and c) cell cultured medium and cells transfected with the reporter plasmid mentioned above (“reporter cells”).
The MCF-7/S0.5 cells transfected with the reporter plasmid where the expression of NanoLuc® luciferase with an N-terminal secretion signal was under the regulation of an estrogen responsive promoter produced in Example 1 were exposed for 24 h to increasing concentrations of 17β-estradiol, ranging from 0.03 to 109 ng/L. The luminescence was then analyzed in the cell culture medium, without cell lysis.

## C[C@]12CC[C@@H]3c4ccc(O)cc4CC[C@H]3[C@@H]1CC[C@@H]2O [E2, 17β-estradiol]
FIG. 6
  amount of NanoLuc luciferase secreted into the cell culture medium: increasing with increasing concentration of E2
Luminescence of secreted NanoLuc luciferase in cell culture medium
  effect concentration 20% (EC20): 0.00019 ng/mL
